Results from ChEMBL document CHEMBL4184276, “Curcumin inspired 2-chloro/phenoxy quinoline analogues: Synthesis and biological evaluation as potential anticancer agents” (Bioorg Med Chem Lett, 2018).

Legend:
NCI-H460 [1] = experiment: Cytotoxicity against human NCI-H460 cells assessed as reduction in cell viability after 48 hrs by MTT assay; type: functional, cell-based; conditions: NCI-H460, 48 h
HGC-27 = experiment: Cytotoxicity against human HGC27 cells assessed as reduction in cell viability after 48 hrs by MTT assay; type: functional, cell-based; conditions: HGC-27, 48 h
PC-3 [2] = experiment: Cytotoxicity against human PC3 cells assessed as reduction in cell viability after 48 hrs by MTT assay; type: functional, cell-based; conditions: PC-3, 48 h
4T1 = experiment: Cytotoxicity against mouse 4T1 cells assessed as reduction in cell viability after 48 hrs by MTT assay; type: functional, cell-based; conditions: 4T1, 48 h
HeLa = experiment: Cytotoxicity against human HeLa cells assessed as reduction in cell viability after 48 hrs by MTT assay; type: functional, cell-based
DU-145 [3] = experiment: Cytotoxicity against human DU145 cells assessed as reduction in cell viability after 48 hrs by MTT assay; type: functional, cell-based; conditions: DU-145, 48 h
DU-145 [4] = experiment: Potency index, ratio of curcumin IC50 to compound IC50 for human DU145 cells; type: functional
[5] = Aqueous solubility in milli-Q water at 2 mg incubated for 5 mins followed by sonication for 1 mins measured after 24 hrs by UV-Visible spectroscopic method; type: physicochemical
NCI-H460 [6] = experiment: Potency index, ratio of curcumin IC50 to compound IC50 for human NCI-H460 cells; type: functional
PC-3 [7] = experiment: Potency index, ratio of curcumin IC50 to compound IC50 for human PC3 cells; type: functional

solubility [5] | SMILES | IC50 (NCI-H460 [1]) | IC50 (HGC-27) | IC50 (PC-3 [2]) | IC50 (4T1) | IC50 (HeLa) | IC50 (DU-145 [3]) | Ratio IC50 (DU-145 [4]) | Ratio IC50 (NCI-H460 [6]) | Ratio IC50 (PC-3 [7])
 | COc1ccc(/C=C/C(=O)/C=C/c2cc3ccccc3nc2Oc2ccc(Br)cc2)cc1OC | > 10 µM | > 10 µM | > 10 µM | > 10 µM | > 10 µM | > 10 µM |  |  | 
 | COc1cc(OC)c(OC)cc1/C=C/C(=O)/C=C/c1cc2ccccc2nc1Oc1cccc(Cl)c1 | > 10 µM | > 10 µM | > 10 µM | > 10 µM | > 10 µM | > 10 µM |  |  | 
 | COc1ccc(OC)c(/C=C/C(=O)/C=C/c2cc3ccccc3nc2Oc2cccc(Cl)c2)c1 | > 10 µM | > 10 µM | > 10 µM | > 10 µM | > 10 µM | > 10 µM |  |  | 
 | COc1ccc(/C=C/C(=O)/C=C/c2cc3ccccc3nc2Oc2ccccc2)cc1 | > 10 µM | > 10 µM | > 10 µM | > 10 µM | > 10 µM | > 10 µM |  |  | 
 | COc1ccc(/C=C/C(=O)/C=C/c2cc3ccccc3nc2Oc2ccccc2)c(OC)c1 | > 10 µM | > 10 µM | > 10 µM | > 10 µM | > 10 µM | > 10 µM |  |  | 
Soluble | COc1cc(OC)c(OC)cc1/C=C/C(=O)/C=C/c1cc2ccccc2nc1Oc1ccccc1 | 8.03 µM | 10.5 µM | 7.29 µM | 7.63 µM | 12.2 µM | 9.22 µM | 3.6 | 2.1 | 2.6
 | COc1ccc(/C=C/C(=O)/C=C/c2cc3ccccc3nc2Oc2cccc(Cl)c2)cc1OC | > 10 µM | > 10 µM | > 10 µM | > 10 µM | > 10 µM | > 10 µM |  |  | 
 | COc1cc(OC)c(/C=C/C(=O)/C=C/c2cc3ccccc3nc2Oc2ccccc2C(C)C)c(OC)c1 | > 10 µM | > 10 µM | > 10 µM | > 10 µM | > 10 µM | > 10 µM |  |  | 
 | COc1ccc(/C=C/C(=O)/C=C/c2cc3ccccc3nc2Cl)c(OC)c1 | > 10 µM | > 10 µM | > 10 µM | > 10 µM | > 10 µM | > 10 µM |  |  | 
Soluble | COc1cc(/C=C/C(=O)CC(=O)/C=C/c2ccc(O)c(OC)c2)ccc1O [CURCUMIN] | 17.1 µM |  | 18.7 µM |  |  | 33.1 µM |  |  | 
 | COc1cc(OC)c(/C=C/C(=O)/C=C/c2cc3ccccc3nc2Oc2cccc(Cl)c2)c(OC)c1 | > 10 µM | > 10 µM | > 10 µM | > 10 µM | > 10 µM | > 10 µM |  |  | 
